# From the RepoRT retention time repository (doi:10.1038/sdata.2014.29)
# Test: RP, Waters ACQUITY UPLC HSS T3, 150 × 2 mm, 1.7 µm, 30 °C, 0.4 mL/min, estimated dead time 0.75 min; A: water + 0.2% formic acid; B: 2% water + 98% acetonitrile + 0.2% formic acid; gradient (min/%B) 0/0 2.5/0 7.5/10 10/100 12/100 18/0 25/0
# Settings: stereoisomer not certain
row,Compound,LC retention time [min]
1,CC(=O)C(=O)O [pyruvic acid],4.6
2,O=C(COP(=O)(O)O)Cc1cnc[nH]1 [3-(imidazol-4-yl)-2-oxopropyl dihydrogen phosphate],2.09
3,"O[C@@H]1c2c(sc3ccccc23)C=C[C@@H]1O (relative stereo) [cis-1,2-dihydroxy-1,2-dihydrodibenzothiophene]",1.64
4,CS(=O)(=O)CCC(N)C(=O)O (stereo not given) [methionine sulfone],1.9
5,NC(Cc1c[nH]c2ccccc12)C(=O)O (stereo not given) [tryptophan],8.87
6,C[C@H]([NH3+])C(=O)[O-] [L-alanine],1.44
7,NC(CCC(=O)O)C(=O)O (stereo not given) [glutamic acid],1.62
8,O=C(O)[C@H](O)[C@@H](O)[C@H](O)[C@H](O)COP(=O)(O)O [6-phospho-D-gluconic acid],1.55
9,C[N+](C)(C)CC(=O)[O-] [glycine betaine],1.57
10,O=c1ccn(C2OC(CO)C(O)C2O)c(=O)[nH]1 (stereo not given) [uridine],5.79
11,"OCC1OC(OC2OC(CO)C(O)C(O)C2O)C(O)C(O)C1O (stereo not drawn) [alpha,alpha-trehalose]",1.58
12,O=C(O)CCC(=O)C(=O)O [2-oxoglutaric acid],3.04
13,NC(Cc1cnc[nH]1)C(=O)O (stereo not given) [histidine],1.43
14,Nc1nc2c(ncn2C2OC(CO)C(O)C2O)c(=O)[nH]1 (stereo not given) [guanosine],6.32
15,O=C(C=Cc1ccc(O)c(O)c1)OC1CC(O)(C(=O)O)CC(O)C1O (stereo not given) [chlorogenic acid],9.09
16,CCCCCCCCCCCCOCCOCCOCCOCCOCCO [pentaethylene glycol monododecyl ether],11.8
17,CC(=O)NC=CSC1=C(C(=O)O)N2C(=O)C(C(C)OS(=O)(=O)O)C2C1 (stereo not given) [epithienamycin E],4.43
18,O=C1CC[C@@H](C(=O)O)N1 [5-oxo-L-proline],4.72
19,"O=C1O[C@H](CO)[C@@H](O)[C@H](O)[C@H]1O [D-glucono-1,5-lactone]",2.02
20,O=C(O)CCCCC1CCSS1 [(R)-lipoic acid],2.28
21,COC(=O)[C@@H](N)Cc1ccc(O)cc1 [methyl L-tyrosinate],10.7
22,OCC1OC(OC2(COC3(CO)OC(CO)C(O)C3O)OC(CO)C(O)C2O)C(O)C(O)C1O (stereo not given) [1-kestose],1.88
23,Nc1ncnc2c1ncn2[C@@H]1O[C@H](CSCC[C@H]([NH3+])C(=O)[O-])[C@@H](O)[C@H]1O [S-adenosyl-L-homocysteine],1.92
24,"C=CC=C(O)C(=O)O [cis-2-hydroxypenta-2,4-dienoic acid]",1.68

row,Compound,LC retention time [min]
1,CC1=CC2=CC(C)CC23OC(=C(C)C3=O)CC(C)(C)C=CC1=O (stereo not given) [jatrophone],10.2
2,O=C(O)C1OC(O)C(O)C(O)C1O (stereo not given) [Glucuronic Acid],1.61
3,O=C(O)CC(O)C(=O)O (stereo not given) [malic acid],2.44
4,O=C(O)c1ccc(O)cc1 [4-hydroxybenzoic acid],9.88
5,O=C(O)/C=C/c1ccc(O[C@@H]2O[C@H](CO)[C@@H](O)[C@H](O)[C@H]2O)cc1 [4-O-beta-D-glucosyl-4-coumaric acid],9.11
6,N[C@@H](CC(=O)O)C(=O)O [L-aspartic acid],1.53
7,O=C(O)C=C(CC(=O)O)C(=O)O [cis-aconitic acid],4.46
8,NC(=O)NC1NC(=O)NC1=O (stereo not given) [allantoin],1.76
9,C=CC#CC#CC1=CC=C(C#CC)SS1 [thiarubrine A],1.97
10,OCC=Cc1ccc(O)cc1 [4-hydroxycinnamyl alcohol],1.62
11,O=C(O)[C@H](O)[C@@H](O)[C@H](O)CO [D-xylonic acid],1.69
12,O=C(O)CCCCCCC(=O)O [suberic acid],9.43
13,O=c1[nH]cnc2nc[nH]c12 [hypoxanthine],1.75
14,O=C(O)[C@H](O)[C@@H](O)[C@H](O)[C@H](O)CO [D-gluconic acid],1.61
15,O=C(O)C=Cc1ccc(O)c(OC2OC(CO)C(O)C(O)C2O)c1 (stereo not given) [Caffeic acid 3-glucoside],8.96
16,O=C(O)C(O)CO (stereo not given) [glyceric acid],1.92
17,O=C[C@H](O)[C@H](O)CO [D-erythrose],1.67
18,O=P(O)(O)OCC1OC(CO)(OC2OC(CO)C(O)C(O)C2O)C(O)C1O (stereo not given) [sucrose 6(F)-phosphate],1.81
19,CC[C@H](C)[C@H](N)C(=O)O [L-isoleucine],5.34
20,CC(C)CC(=O)C(=O)O [4-methyl-2-oxopentanoic acid],9.46
21,O=C(O)c1nc2[nH]c(=O)[nH]c(=O)c2[nH]1 [xanthine-8-carboxylic acid],4.71
22,O=C(O)CC(=O)O [malonic acid],2.64
23,O=C(CO)CO [glycerone],3.02
24,O=C(O)c1ccco1 [2-furoic acid],4.46

row,Compound,LC retention time [min]
1,O=C(O)C(=O)[C@H](O)COP(=O)(O)O [(R)-3-hydroxy-2-oxo-4-phosphonooxybutanoic acid],9.3
2,C[C@](O)(CO)[C@H](O)COP(=O)(O)O [2-C-methyl-D-erythritol 4-(dihydrogen phosphate)],1.64
3,O=C(O)C1CCCCN1 (stereo not given) [pipecolic acid],2.79
4,N#CCC(N)C(=O)O (stereo not given) [3-cyanoalanine],1.51
5,O=P(O)(O)OC(CO)CO [glycerol 2-phosphate],1.53
6,O=C(O)C1OC(OC2C(C(=O)O)OC(O)C(O)C2O)C(O)C(O)C1O (stereo not given) [digalacturonic acid],1.58
7,O=C(O)C=Cc1ccc(O)cc1 [4-coumaric acid],8.99
8,NC(=O)C[C@H](N)C(=O)O [L-asparagine],1.48
9,CC(=O)OC1CC(C)C(C=O)C2(O)C1C(C)(C)CC2(C)C=O (stereo not given) [botrydial],13.5
10,CC(C(=O)[O-])=C(C)C(=O)[O-] [dimethylmaleate(2-)],1.67
11,O=C(O)CCCCCCCC(=O)O [azelaic acid],9.61
12,O=C(O)C=CC(=O)O [fumaric acid],2.46
13,O=P([O-])([O-])OP(=O)([O-])[O-] [diphosphate(4-)],1.47
14,CC(=O)OC(C)(C)C1CCC2(C)COC3(C)C=COC23C1 (stereo not given) [AC1L9CQ2],11.6
15,O=C(O)CCC(=O)O [succinic acid],5.35
16,O=C([O-])C(O)C(O)C(O)C(O)C(=O)[O-] (stereo not given) [glucarate(1-)],1.57
17,C#CC1(OC(C)=O)CCC2C3CCC4=CC(=O)CCC4C3CCC21C (stereo not given) [norethindrone acetate],10.5
18,"CC(C=CC1(O)C(C)=CC(=O)CC1(C)C)=CC(=O)O (single isomer, unassigned; (+)) [(+)-abscisic acid]",10.1
19,CC1(C)SC2C(NC(=O)C(C(=O)O)c3ccccc3)C(=O)N2C1C(=O)O (stereo not given) [carbenicillin],1.73
20,O=C(CO)COP(=O)(O)O [glycerone phosphate],9.3
21,COc1c2ccoc2c(OC)c2oc(=O)ccc12 [isopimpinellin],1.66
22,Nc1ncnc2c1ncn2C1OC(CO)C(O)C1O (stereo not given) [adenosine],6.01
